Experimental data: ChEMBL document CHEMBL1909046, “DrugMatrix in vitro pharmacology data”

How the values were obtained:
[1] = target: 5-hydroxytryptamine receptor 2B (Homo sapiens, UniProt P41595); assay type: cell membranes, CHO-K1, Membrane; conditions: cho-k1; further: in other assays of this panel Not Active means under 50% inhibition at 10 µM
[2] = target: T1, 5-hydroxytryptamine receptor 2C (Homo sapiens, UniProt P28335); assay: DRUGMATRIX: Serotonin (5-Hydroxytryptamine) 5-HT2C radioligand binding (ligand: [3H] Mesulergine); assay type: cell membranes, CHO-K1, Membrane; conditions: cho-k1; Not Active = under 50% inhibition at 10 µM
T1 sequence (P28335 whole entry): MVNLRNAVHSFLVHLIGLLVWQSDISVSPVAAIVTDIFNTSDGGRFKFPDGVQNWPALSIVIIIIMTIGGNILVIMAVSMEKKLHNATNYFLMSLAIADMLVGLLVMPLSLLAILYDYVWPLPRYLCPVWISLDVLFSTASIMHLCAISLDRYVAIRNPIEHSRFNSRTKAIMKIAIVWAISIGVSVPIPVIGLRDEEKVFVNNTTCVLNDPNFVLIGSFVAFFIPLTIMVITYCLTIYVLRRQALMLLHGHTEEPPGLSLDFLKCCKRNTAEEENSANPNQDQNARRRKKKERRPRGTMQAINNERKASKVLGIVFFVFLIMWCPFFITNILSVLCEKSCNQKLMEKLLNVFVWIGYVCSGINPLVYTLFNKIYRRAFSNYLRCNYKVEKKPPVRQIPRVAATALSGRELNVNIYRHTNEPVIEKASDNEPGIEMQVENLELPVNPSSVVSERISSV

[3] = target: 5-hydroxytryptamine receptor 4 (Cavia porcellus, UniProt O70528); assay type: cell membranes, Dunkin-Hartley, Striatum, Membrane; further: in other assays of this panel Not Active means under 50% inhibition at 10 µM
[4] = target: T2, Vasoactive intestinal polypeptide receptor 1 (Homo sapiens, UniProt P32241); assay type: cell membranes, Membrane; conditions: ht-29; further: in other assays of this panel Not Active means under 50% inhibition at 10 µM
T2 sequence (P32241 whole entry): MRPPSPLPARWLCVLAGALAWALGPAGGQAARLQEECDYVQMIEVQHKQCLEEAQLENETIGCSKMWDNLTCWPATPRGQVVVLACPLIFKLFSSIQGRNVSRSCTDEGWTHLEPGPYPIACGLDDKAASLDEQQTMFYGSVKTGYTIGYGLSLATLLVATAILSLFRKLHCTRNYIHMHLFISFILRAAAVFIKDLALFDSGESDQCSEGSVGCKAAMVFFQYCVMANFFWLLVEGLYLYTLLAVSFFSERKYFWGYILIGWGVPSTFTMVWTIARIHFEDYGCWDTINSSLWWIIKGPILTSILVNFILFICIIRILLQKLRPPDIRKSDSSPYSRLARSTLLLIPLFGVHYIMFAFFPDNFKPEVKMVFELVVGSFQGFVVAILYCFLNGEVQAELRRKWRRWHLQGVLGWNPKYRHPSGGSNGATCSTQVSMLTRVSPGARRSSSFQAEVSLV

Progesterone receptor = target: T3, Progesterone receptor (Bos taurus, UniProt Q690N0); assay: DRUGMATRIX: Progesterone radioligand binding (ligand: [3H] R-5020); assay type: tissue-based, Uterus; conditions: Not Active = under 50% inhibition at 10 µM
T3 sequence (Q690N0 whole entry): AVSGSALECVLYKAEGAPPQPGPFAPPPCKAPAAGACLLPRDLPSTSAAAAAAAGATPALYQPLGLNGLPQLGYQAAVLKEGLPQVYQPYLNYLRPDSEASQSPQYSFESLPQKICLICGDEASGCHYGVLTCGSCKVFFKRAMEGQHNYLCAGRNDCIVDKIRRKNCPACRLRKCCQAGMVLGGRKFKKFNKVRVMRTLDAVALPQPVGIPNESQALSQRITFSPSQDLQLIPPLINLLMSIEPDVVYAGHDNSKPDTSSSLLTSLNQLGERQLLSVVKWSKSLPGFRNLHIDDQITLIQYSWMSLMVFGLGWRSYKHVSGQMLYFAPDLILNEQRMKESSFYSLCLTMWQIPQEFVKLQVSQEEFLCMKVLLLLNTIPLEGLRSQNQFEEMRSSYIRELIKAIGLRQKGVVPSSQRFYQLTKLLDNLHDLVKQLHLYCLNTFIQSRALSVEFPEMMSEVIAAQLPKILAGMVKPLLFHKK

Cytochrome P450 2A6 = target: T4, Cytochrome P450 2A6 (Homo sapiens, UniProt P11509); conditions: bti-tn-5b1-4; further: in other assays of this panel Not Active means under 50% inhibition at 10 µM
T4 sequence (P11509 whole entry): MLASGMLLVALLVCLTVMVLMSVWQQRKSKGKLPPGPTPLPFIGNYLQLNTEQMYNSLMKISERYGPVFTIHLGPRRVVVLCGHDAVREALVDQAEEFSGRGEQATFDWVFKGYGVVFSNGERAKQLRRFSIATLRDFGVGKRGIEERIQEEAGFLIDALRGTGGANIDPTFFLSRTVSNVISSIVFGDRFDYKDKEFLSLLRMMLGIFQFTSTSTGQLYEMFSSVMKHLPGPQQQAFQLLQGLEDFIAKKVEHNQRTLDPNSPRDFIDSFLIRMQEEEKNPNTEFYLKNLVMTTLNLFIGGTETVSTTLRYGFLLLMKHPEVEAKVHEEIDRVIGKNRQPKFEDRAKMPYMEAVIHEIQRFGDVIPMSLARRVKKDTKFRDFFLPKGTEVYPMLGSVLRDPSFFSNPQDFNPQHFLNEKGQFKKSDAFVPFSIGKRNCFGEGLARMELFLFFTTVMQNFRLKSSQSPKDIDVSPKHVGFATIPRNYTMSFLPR

5-hydroxytryptamine receptor 4, sequence (O70528 whole entry): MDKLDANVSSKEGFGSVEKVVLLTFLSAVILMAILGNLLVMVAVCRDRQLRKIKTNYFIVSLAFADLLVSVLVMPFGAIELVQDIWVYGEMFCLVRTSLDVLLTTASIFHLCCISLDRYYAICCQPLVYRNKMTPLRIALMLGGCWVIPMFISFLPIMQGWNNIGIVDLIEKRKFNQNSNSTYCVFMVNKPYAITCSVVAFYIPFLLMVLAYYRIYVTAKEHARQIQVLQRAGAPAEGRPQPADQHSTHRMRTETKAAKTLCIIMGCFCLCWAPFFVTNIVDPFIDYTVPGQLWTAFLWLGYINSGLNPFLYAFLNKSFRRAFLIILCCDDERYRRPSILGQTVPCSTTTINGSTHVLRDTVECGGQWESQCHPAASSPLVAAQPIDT
5-hydroxytryptamine receptor 2B, sequence (P41595 whole entry): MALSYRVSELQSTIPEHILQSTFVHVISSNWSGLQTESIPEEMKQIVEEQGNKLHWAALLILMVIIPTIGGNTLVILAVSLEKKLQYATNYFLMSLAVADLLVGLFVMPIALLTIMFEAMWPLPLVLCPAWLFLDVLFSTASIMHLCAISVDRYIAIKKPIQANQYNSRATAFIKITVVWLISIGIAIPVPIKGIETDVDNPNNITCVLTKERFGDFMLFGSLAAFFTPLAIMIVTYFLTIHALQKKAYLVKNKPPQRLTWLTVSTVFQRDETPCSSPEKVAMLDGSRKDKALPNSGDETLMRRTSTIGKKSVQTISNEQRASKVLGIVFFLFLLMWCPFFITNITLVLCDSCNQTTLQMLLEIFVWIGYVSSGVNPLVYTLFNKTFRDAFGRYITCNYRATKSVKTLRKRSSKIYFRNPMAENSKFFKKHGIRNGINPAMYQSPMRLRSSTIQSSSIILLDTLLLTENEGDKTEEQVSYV

CCCN(CCC)S(=O)(=O)c1ccc(C(=O)O)cc1 [PROBENECID]
Not Active: IC50 [1] | IC50 [2] | IC50 [3] | IC50 [4] | IC50 (Progesterone receptor) | IC50 (Cytochrome P450 2A6) | Ki (Cytochrome P450 2A6)

CCCOc1ccc(C(=O)OCCN(CC)CC)cc1N [PROPARACAINE]
Not Active: IC50 [1] | IC50 [2] | IC50 [3] | IC50 [4] | IC50 (Progesterone receptor) | IC50 (Cytochrome P450 2A6) | Ki (Cytochrome P450 2A6)

C[C@@H]1O[C@@H](O[C@@H]2C=C3CC[C@@H]4[C@H](CC[C@]5(C)[C@@H](c6ccc(=O)oc6)CC[C@]45O)[C@@]3(C)CC2)[C@H](O)[C@H](O)[C@H]1O [PROSCILLARIDIN]
Not Active: IC50 [1] | IC50 [2] | IC50 [3] | IC50 [4] | IC50 (Progesterone receptor) | IC50 (Cytochrome P450 2A6) | Ki (Cytochrome P450 2A6)

Oc1cccc(O)c1O [PYROGALLOL]
Not Active: IC50 [1] | IC50 [2] | IC50 [3] | IC50 [4] | IC50 (Progesterone receptor) | IC50 (Cytochrome P450 2A6) | Ki (Cytochrome P450 2A6)

AURANOFIN
Not Active: IC50 [1] | Ki [1] | IC50 [2] | Ki [2] | IC50 [3] | Ki [3] | IC50 [4] | Ki [4] | IC50 (Progesterone receptor) | Ki (Progesterone receptor) | IC50 (Cytochrome P450 2A6) | Ki (Cytochrome P450 2A6)

GADOPENTETATE DIMEGLUMINE
Not Active: IC50 [1] | Ki [1] | IC50 [2] | Ki [2] | IC50 [3] | Ki [3] | IC50 [4] | Ki [4] | IC50 (Progesterone receptor) | Ki (Progesterone receptor) | IC50 (Cytochrome P450 2A6) | Ki (Cytochrome P450 2A6)

GENTAMICIN
Not Active: IC50 [1] | Ki [1] | IC50 [2] | Ki [2] | IC50 [3] | Ki [3] | IC50 [4] | Ki [4] | IC50 (Progesterone receptor) | Ki (Progesterone receptor) | IC50 (Cytochrome P450 2A6) | Ki (Cytochrome P450 2A6)

GRAMICIDIN
Not Active: IC50 [1] | Ki [1] | IC50 [2] | Ki [2] | IC50 [3] | Ki [3] | IC50 [4] | Ki [4] | IC50 (Progesterone receptor) | Ki (Progesterone receptor) | IC50 (Cytochrome P450 2A6) | Ki (Cytochrome P450 2A6)

NYSTATIN
Not Active: IC50 [1] | Ki [1] | IC50 [2] | Ki [2] | IC50 [3] | Ki [3] | IC50 [4] | Ki [4] | IC50 (Progesterone receptor) | Ki (Progesterone receptor) | IC50 (Cytochrome P450 2A6) | Ki (Cytochrome P450 2A6)
